Measurements: ChEMBL document CHEMBL1140330, “Carbonic anhydrase inhibitors. Design of fluorescent sulfonamides as probes of tumor-associated carbonic anhydrase IX that inhibit isozyme IX-mediated acidification of hypoxic tumors” (J Med Chem, 2005)

How the values were obtained:
Carbonic anhydrase 2 = Carbonic anhydrase 2 (Homo sapiens, UniProt P00918)
Description: Inhibition constant against human (cloned) isozyme (hCA II) by CO2 hydration method

in vitro [1] = conditions: human, whole blood; level measured in red blood cells
Description: Compound level in Red Blood Cells at 30 min, after exposure of 10 mL of Blood to compound solution by HPLC method

in vitro [2] = conditions: human, whole blood; level measured in red blood cells; remark: listed apart in the source
Description: Compound level in Red Blood Cells at 30 min, after exposure of 10 mL of Blood to compound solution by electronic spectroscopic method

Carbonic anhydrase 1 = Carbonic anhydrase 1 (Homo sapiens, UniProt P00915)
Description: Inhibition constant against human (cloned) isozyme (hCA I) by the CO2 hydration method

in vitro [3] = conditions: human, whole blood; level measured in red blood cells; remark: listed apart in the source
Description: Compound level in Red Blood Cells at 48 h, after exposure of 10 mL of Blood to compound solution by HPLC method

in vitro [4] = conditions: human, whole blood; level measured in red blood cells; remark: listed apart in the source
Description: Compound level in Red Blood Cells at 60 min, after exposure of 10 mL of Blood to compound solution by electronic spectroscopic method

Carbonic anhydrase 9 = Carbonic anhydrase 9 (Homo sapiens, UniProt Q16790)
Description: Inhibition constant against human cloned isozyme (hCA IX) by CO2 hydration method

in vitro [5] = conditions: human, whole blood; level measured in red blood cells; remark: listed apart in the source
Description: Compound level in Red Blood Cells at 60 min, after exposure of 10 mL of Blood to compound solution by HPLC method

in vitro [6] = conditions: human, whole blood; level measured in red blood cells; remark: listed apart in the source
Description: Compound level in Red Blood Cells at 48 h, after Exposure of 10 mL of Blood to Compound solution by electronic spectroscopic method

Sequence of Carbonic anhydrase 1 (P00915 whole entry): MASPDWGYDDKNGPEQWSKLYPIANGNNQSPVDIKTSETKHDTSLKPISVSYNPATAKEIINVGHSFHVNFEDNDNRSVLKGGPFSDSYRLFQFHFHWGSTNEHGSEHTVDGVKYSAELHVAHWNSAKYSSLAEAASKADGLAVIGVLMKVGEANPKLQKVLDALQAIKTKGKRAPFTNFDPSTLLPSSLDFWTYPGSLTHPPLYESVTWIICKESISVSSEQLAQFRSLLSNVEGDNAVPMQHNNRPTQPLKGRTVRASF

Structure (SMILES)	Ki (Carbonic anhydrase 2)	concentration at 0.5 h (in vitro [1])	concentration at 0.5 h (in vitro [2])	Ki (Carbonic anhydrase 1)	concentration at 48 h (in vitro [3])	concentration at 1 h (in vitro [4])	Ki (Carbonic anhydrase 9)	concentration at 1 h (in vitro [5])	concentration at 48 h (in vitro [6])
Cc1cc(C)[n+](Cc2ccc(S(N)(=O)=O)cc2)cc1C.[O-][Cl+3]([O-])([O-])[O-]	50 nM	0.3 µM	0.5 µM	7000 nM	0.3 µM	0.5 µM	38 nM	0.4 µM	0.5 µM
NS(=O)(=O)c1ccc(C/N=C(S)/N=C2/C=CC(=C3c4ccc(O)cc4Oc4cc(O)ccc43)C(C(=O)O)=C2)cc1				1450 nM			26 nM		
NS(=O)(=O)c1ccc(/N=C(S)/N=C2/C=CC(=C3c4ccc(O)cc4Oc4cc(O)ccc43)C(C(=O)O)=C2)c(Br)c1	43 nM			1100 nM			35 nM		
CC(=O)/N=c1/sc(S(N)(=O)=O)nn1C [METHAZOLAMIDE]		170 µM	169 µM		167 µM	168 µM		168 µM	169 µM
NS(=O)(=O)c1ccc(CC/N=C(S)/N=C2/C=CC(=C3c4ccc(O)cc4Oc4cc(O)ccc43)C(C(=O)O)=C2)cc1				1300 nM					
NCCc1ccc(S(N)(=O)=O)cc1		132 µM	138 µM		167 µM	165 µM		162 µM	168 µM

The next lines start with the values.

Ki (Carbonic anhydrase 2)	concentration at 0.5 h (in vitro [1])	concentration at 0.5 h (in vitro [2])	Ki (Carbonic anhydrase 1)	concentration at 48 h (in vitro [3])	concentration at 1 h (in vitro [4])	Ki (Carbonic anhydrase 9)	concentration at 1 h (in vitro [5])	concentration at 48 h (in vitro [6])	Structure (SMILES)
52 nM			950 nM			32 nM			NS(=O)(=O)c1ccc(/N=C(S)/N=C2/C=CC(=C3c4ccc(O)cc4Oc4cc(O)ccc43)C(C(=O)O)=C2)c(Cl)c1
			980 nM			30 nM			NS(=O)(=O)c1ccc(/N=C(S)/N=C2/C=CC(=C3c4ccc(O)cc4Oc4cc(O)ccc43)C(C(=O)O)=C2)c(F)c1
40 nM			1070 nM			31 nM			NS(=O)(=O)c1ccc(/N=C(S)/N=C2/C=CC(=C3c4ccc(O)cc4Oc4cc(O)ccc43)C(C(=O)O)=C2)c(I)c1
